From ChEMBL document CHEMBL3885881, “DrugMatrix”

Species: Rattus norvegicus
Test: DrugMatrix - Regimen: Daily Repeat
Format: toxicity, organism-based, Sprague-Dawley
Parameters: regimen Daily Repeat, gender Male, age 6-8 weeks
Conditions: in vivo, po, route oral GAVAGE, […]; for ABSOLUTE BASOPHIL / ABSOLUTE EOSINOPHIL / ABSOLUTE LYMPHOCYTE / ABSOLUTE MONOCYTE / ABSOLUTE SEGMENTED NEUTROPHIL / BASOPHIL / EOSINOPHIL / ERYTHROCYTE COUNT / HEMATOCRIT / HEMOGLOBIN / LEUKOCYTE COUNT / LYMPHOCYTE / MEAN CORPUSCULAR HEMOGLOBIN / MEAN CORPUSCULAR HEMOGLOBIN CONCENTRATION / MEAN CORPUSCULAR VOLUME / MONOCYTE / NEUTROPHIL / NUCLEATED RED BLOOD CELLS / PLATELET COUNT: tissue Blood; for ALANINE AMINOTRANSFERASE / ALBUMIN / ALKALINE PHOSPHATASE / ASPARTATE AMINOTRANSFERASE / BLOOD UREA NITROGEN / CARBON DIOXIDE / CHLORIDE / CHOLESTEROL / CREATINE PHOSPHOKINASE / CREATININE / GLUCOSE / LACTATE DEHYDROGENASE / LIPASE / PHOSPHORUS / POTASSIUM / SODIUM / TOTAL BILIRUBIN / TOTAL PROTEIN / URIC ACID: tissue Plasma
[1] = 10 mg/kg, 120 h, dose level Low, time 5 day
[2] = 92 mg/kg, 72 h, dose level High, time 3 day
[3] = 92 mg/kg, 120 h, dose level High, time 5 day

## c1ccc2[nH]c(-c3cscn3)nc2c1 [THIABENDAZOLE]
[1]
  ABSOLUTE BASOPHIL: 0 CELLS/uL
  ABSOLUTE EOSINOPHIL: 61 CELLS/uL
  ABSOLUTE LYMPHOCYTE: 15391 CELLS/uL
  ABSOLUTE MONOCYTE: 225.67 CELLS/uL
  ABSOLUTE SEGMENTED NEUTROPHIL: 1089 CELLS/uL
  BASOPHIL: 0%
  EOSINOPHIL: 0.33%
  ERYTHROCYTE COUNT: 6.11 x10E6/uL
  HEMATOCRIT: 37.8%
  HEMOGLOBIN: 14.63 G/DL
  LEUKOCYTE COUNT: 16.77 x10E3/uL
  LYMPHOCYTE: 92%
  MEAN CORPUSCULAR HEMOGLOBIN: 23.97 pg
  MEAN CORPUSCULAR HEMOGLOBIN CONCENTRATION: 38.7 G/DL
  MEAN CORPUSCULAR VOLUME: 61.9 fL
  MONOCYTE: 1.33%
  NEUTROPHIL: 6.33%
  NUCLEATED RED BLOOD CELLS: 0 /100WBC
  PLATELET COUNT: 1202.33 x10E3/uL
  ALANINE AMINOTRANSFERASE: 79.33 u/L
  ALBUMIN: 4 G/DL
  ALKALINE PHOSPHATASE: 420.33 u/L
  ASPARTATE AMINOTRANSFERASE: 82.33 u/L
  BLOOD UREA NITROGEN: 12.33 mg/dL
  CARBON DIOXIDE: 30.67 mmol/L
  CHLORIDE: 100.67 MEQ/L
  CHOLESTEROL: 66.33 mg/dL
  CREATINE PHOSPHOKINASE: 192 u/L
  CREATININE: 0.19 mg/dL
  GLUCOSE: 163.67 mg/dL
  LACTATE DEHYDROGENASE: 183 u/L
  LIPASE: 10.33 u/L
  PHOSPHORUS: 11.47 mg/dL
  POTASSIUM: 6.52 MEQ/L
  SODIUM: 143.07 MEQ/L
  TOTAL BILIRUBIN: 0.13 mg/dL
  TOTAL PROTEIN: 5.6 G/DL
  URIC ACID: 1.87 mg/dL
[2]
  ABSOLUTE BASOPHIL: 0 CELLS/uL
  ABSOLUTE EOSINOPHIL: 24 CELLS/uL
  ABSOLUTE LYMPHOCYTE: 7261 CELLS/uL
  ABSOLUTE MONOCYTE: 24 CELLS/uL
  ABSOLUTE SEGMENTED NEUTROPHIL: 591 CELLS/uL
  BASOPHIL: 0%
  EOSINOPHIL: 0.33%
  ERYTHROCYTE COUNT: 5.57 x10E6/uL
  HEMATOCRIT: 35.07%
  HEMOGLOBIN: 13.8 G/DL
  LEUKOCYTE COUNT: 7.9 x10E3/uL
  LYMPHOCYTE: 91.33%
  MEAN CORPUSCULAR HEMOGLOBIN: 24.83 pg
  MEAN CORPUSCULAR HEMOGLOBIN CONCENTRATION: 39.4 G/DL
  MEAN CORPUSCULAR VOLUME: 63.07 fL
  MONOCYTE: 0.33%
  NEUTROPHIL: 8%
  NUCLEATED RED BLOOD CELLS: 0.33 /100WBC
  PLATELET COUNT: 1094.67 x10E3/uL
  ALANINE AMINOTRANSFERASE: 74.33 u/L
  ALBUMIN: 4.13 G/DL
  ALKALINE PHOSPHATASE: 448.67 u/L
  ASPARTATE AMINOTRANSFERASE: 82 u/L
  BLOOD UREA NITROGEN: 11.67 mg/dL
  CARBON DIOXIDE: 25 mmol/L
  CHLORIDE: 95.67 MEQ/L
  CHOLESTEROL: 85 mg/dL
  CREATINE PHOSPHOKINASE: 153.33 u/L
  CREATININE: 0.32 mg/dL
  GLUCOSE: 135.67 mg/dL
  LACTATE DEHYDROGENASE: 102 u/L
  LIPASE: 9.33 u/L
  PHOSPHORUS: 9.53 mg/dL
  POTASSIUM: 5.43 MEQ/L
  SODIUM: 139.33 MEQ/L
  TOTAL BILIRUBIN: 0.13 mg/dL
  TOTAL PROTEIN: 5.73 G/DL
  URIC ACID: 0.6 mg/dL
[3]
  ABSOLUTE BASOPHIL: 0 CELLS/uL
  ABSOLUTE EOSINOPHIL: 47 CELLS/uL
  ABSOLUTE LYMPHOCYTE: 13905 CELLS/uL
  ABSOLUTE MONOCYTE: 244.33 CELLS/uL
  ABSOLUTE SEGMENTED NEUTROPHIL: 703.67 CELLS/uL
  BASOPHIL: 0%
  EOSINOPHIL: 0.33%
  ERYTHROCYTE COUNT: 6.23 x10E6/uL
  HEMATOCRIT: 39.1%
  HEMOGLOBIN: 15 G/DL
  LEUKOCYTE COUNT: 14.9 x10E3/uL
  LYMPHOCYTE: 93.33%
  MEAN CORPUSCULAR HEMOGLOBIN: 24.1 pg
  MEAN CORPUSCULAR HEMOGLOBIN CONCENTRATION: 38.37 G/DL
  MEAN CORPUSCULAR VOLUME: 62.7 fL
  MONOCYTE: 1.67%
  NEUTROPHIL: 4.67%
  NUCLEATED RED BLOOD CELLS: 0 /100WBC
  PLATELET COUNT: 1269.33 x10E3/uL
  ALANINE AMINOTRANSFERASE: 73.33 u/L
  ALBUMIN: 4.13 G/DL
  ALKALINE PHOSPHATASE: 474.33 u/L
  ASPARTATE AMINOTRANSFERASE: 82 u/L
  BLOOD UREA NITROGEN: 13.33 mg/dL
  CARBON DIOXIDE: 25.67 mmol/L
  CHLORIDE: 101 MEQ/L
  CHOLESTEROL: 64.33 mg/dL
  CREATINE PHOSPHOKINASE: 344.33 u/L
  CREATININE: 0.18 mg/dL
  GLUCOSE: 187 mg/dL
  LACTATE DEHYDROGENASE: 278 u/L
  LIPASE: 10.33 u/L
  PHOSPHORUS: 12.03 mg/dL
  POTASSIUM: 6.59 MEQ/L
  SODIUM: 141.23 MEQ/L
  TOTAL BILIRUBIN: 0.2 mg/dL
  TOTAL PROTEIN: 5.7 G/DL
  URIC ACID: 2.43 mg/dL
